Experimental data reported in patent publication EP2257297B1, “COMPOUNDS FOR USE IN THE TREATMENT OF ACNE, SEBORRHOEA AND SEBHORROEIC DERMATITIS, OR FOR REDUCING SEBUM SECRETION” (priority 2008, dated 2009).

What follows are molecules tested against T1, human MC5R (Homo sapiens, UniProt P33032) (assay: Human MC5R radioligand binding assay ([125I] NDP-MSH displacement, hMC5R membranes)). Settings: hMC5R assay as in Example 102; compounds tested as trifluoroacetate or hydrochloride salts, or as free base.
T1 construct: purchased Perkin Elmer RBXMC5M400UA
Description: After incubation for 10 mins the phosphate buffer containing the iodine was added to NDP-MSH (10 ul at 1 mg/mL) in a separate eppendorf tube. This was incubated for a further 10 mins.
Resuspended membranes were kept on ice until they were added to the wells of the plate.
Assays were performed in 96 well polypropylene plates. […] This was incubated for 1 hr at 37 °C. Non-specific binding was determined with […] NDP-MSH. Plates were filtered using a Tomtec cell harvester with GF/A filters (Wallac) (presoaked in 0.6% polyethylenimine) and washed three times with 1.0 mL ice-cold wash buffer (the above incubation buffer without 1,10-phenanthroline and Complete™ protease inhibitor tablet). The filters were dried in a 37 °C oven, placed in a sample bag and 5 mL Betaplatescint (Wallac) was added. Prepared filters were counted in cassettes in a Microbeta Trilux (Wallac) for 1 min. […] Data analysis was performed using GraphPad Prism 4, employing competition binding with a single site model and a fixed Hill coefficient. The following equation was used: Y = Bottom + (Top-Bottom)/1/10^(X-logEC50), where X = log(concentration) and Y = binding to fit the data.

T1 sequence (P33032 whole entry): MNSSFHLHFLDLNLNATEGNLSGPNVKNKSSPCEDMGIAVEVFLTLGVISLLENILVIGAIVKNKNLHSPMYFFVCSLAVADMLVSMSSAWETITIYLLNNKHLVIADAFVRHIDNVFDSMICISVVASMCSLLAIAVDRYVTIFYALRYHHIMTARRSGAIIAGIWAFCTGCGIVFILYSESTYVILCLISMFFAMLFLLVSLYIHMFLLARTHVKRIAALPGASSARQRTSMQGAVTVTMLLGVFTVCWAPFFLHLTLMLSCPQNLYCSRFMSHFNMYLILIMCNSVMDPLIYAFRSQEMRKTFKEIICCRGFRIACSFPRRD

Row | SMILES | IC50 [µM]
1 | O=C(/C=C/c1ccc(Cl)cc1)NC[C@@H]1CCN(CC(c2ccccc2)c2ccccc2)C(=O)[C@H](CCC2CCCCC2)N1 [Compound 322, (E)-3-(4-chlorophenyl)-N-(((3S,5S)-3-(2-cyclohexylethyl)-1-(2,2-diphenylethyl)-2-oxo-1,4-diazepan-5-yl)methyl)acrylamide] | < 1
2 | CC(C)NCC[C@@H]1N[C@H](CCNC(=O)c2ccc(Cl)c(Cl)c2)CCN(CC(c2ccccc2)c2ccccc2)C1=O [Compound 362, 3,4-dichloro-N-(2-((3S,5R)-1-(2,2-diphenylethyl)-3-(2-(isopropylamino)ethyl)-2-oxo-1,4-diazepan-5-yl)ethyl)benzamide] | < 1
3 | O=C(NC[C@@H]1CCN(Cc2cc(Cl)cc(Cl)c2)C(=O)[C@H](CN2CCCCC2)N1)c1ccc(Cl)c(Cl)c1 [Compound 367, 3,4-dichloro-N-(((3S,5S)-1-(3,5-dichlorobenzyl)-2-oxo-3-(piperidin-1-ylmethyl)-1,4-diazepan-5-yl)methyl)benzamide] | < 1
4 | CC(C)(C)c1ccc(C(=O)NC[C@@H]2CCN(CC(c3ccccc3)c3ccccc3)C(=O)[C@H](CCCNC(=N)N)N2)cc1 [Compound 145, 4-tert-butyl-N-(((3S,5S)-1-(2,2-diphenylethyl)-3-(3-guanidinopropyl)-2-oxo-1,4-diazepan-5-yl)methyl)benzamide] | < 1
5 | N=C(N)NCCC[C@@H]1N[C@H](CNC(=O)c2ccc3ncsc3c2)CCN(CC(c2ccccc2)c2ccccc2)C1=O [Compound 178, N-(((3S,5S)-1-(2,2-diphenylethyl)-3-(3-guanidinopropyl)-2-oxo-1,4-diazepan-5-yl)methyl)benzo[d]thiazole-6-carboxamide] | < 1
6 | NCC[C@@H]1N[C@H](CNC(=O)c2ccc3ccccc3c2)CCN(Cc2cc(Cl)cc(Cl)c2)C1=O [Compound 49, (3S,5S)-3-(2-aminoethyl)-5-(2-naphthoylaminomethyl)-1-(3,5-dichlorobenzyl)-1,4-diazepan-2-one] | < 1
7 | N=C(N)NCCC[C@@H]1N[C@H](CNC(=O)C2CCCCC2)CCN(CC(c2ccccc2)c2ccccc2)C1=O [Compound 139, N-(((3S,5S)-1-(2,2-diphenylethyl)-3-(3-guanidinopropyl)-2-oxo-1,4-diazepan-5-yl)methyl)cyclohexanecarboxamide] | < 10
8 | NCCCC[C@@H]1N[C@H](CNC(=O)Cc2ccc3ccccc3c2)CCN(Cc2cccc3ccccc23)C1=O [Compound 118, N-(((3S,5S)-3-(4-aminobutyl)-1-(naphthalen-1-ylmethyl)-2-oxo-1,4-diazepan-5-yl)methyl)-2-(naphthalen-2-yl)acetamide] | < 10
9 | N=C(N)NCCC[C@@H]1N[C@H](CNC(=O)C23CC4CC(CC(C4)C2)C3)CCN(CC(c2ccccc2)c2ccccc2)C1=O [Compound 161, N-(((3S,5S)-1-(2,2-diphenylethyl)-3-(3-guanidinopropyl)-2-oxo-1,4-diazepan-5-yl)methyl)-adamantane-1-carboxamide] | < 10
10 | O=C(/C=C/c1ccc(Cl)cc1)NC[C@@H]1CCN(CC(c2ccccc2)c2ccccc2)C(=O)[C@H](Cc2ccccc2)N1 [Compound 324, (E)-N-(((3S,5S)-3-benzyl-1-(2,2-diphenylethyl)-2-oxo-1,4-diazepan-5-yl)methyl)-3-(4-chlorophenyl)acrylamide] | < 1
11 | CCC(CC)CN1CC[C@@H](CNC(=O)/C=C/c2ccc(Cl)cc2)N[C@@H](CN2CCCCC2)C1=O [Compound 355, (E)-3-(4-chlorophenyl)-N-(((3S,5S)-1-(2-ethylbutyl)-2-oxo-3-(piperidin-1-ylmethyl)-1,4-diazepan-5-yl)methyl)acrylamide] | < 1
12 | CNCCC[C@@H]1N[C@H](CNC(=O)c2ccc3ccccc3c2)CCN(CC(c2ccccc2)c2ccccc2)C1=O [Compound 71, N-(((3S,5S)-1-(2,2-diphenylethyl)-3-(3-(methylamino)propyl)-2-oxo-1,4-diazepan-5-yl)methyl)-2-naphthamide] | < 1

Further lines, results first:

Row | IC50 [µM] | SMILES
13 | < 1 | Cc1ccc(/C=C/C(=O)NC[C@@H]2CCN(CC(c3ccccc3)c3ccccc3)C(=O)[C@H](CCCN)N2)s1 [Compound 255, (E)-N-(((3S,5S)-3-(3-aminopropyl)-1-(2,2-diphenylethyl)-2-oxo-1,4-diazepan-5-yl)methyl)-3-(5-methylthiophen-2-yl)acrylamide]
14 | < 1 | N=C(N)NCCC[C@@H]1N[C@H](CNC(=O)/C=C/c2ccccc2C(F)(F)F)CCN(CC(c2ccccc2)c2ccccc2)C1=O [Compound 172, (E)-N-(((3S,5S)-1-(2,2-diphenylethyl)-3-(3-guanidinopropyl)-2-oxo-1,4-diazepan-5-yl)methyl)-3-(2-(trifluoromethyl)phenyl)acrylamide]
15 | < 0.1 | CCC(CN1CCC(CNC(=O)c2ccc3cc(Cl)ccc3c2)N[C@@H](C2CCN(CCC(C)C)CC2)C1=O)c1ccccc1 (stereo partly shown) [Compound 473]
16 | < 0.1 | CCN(CC)CC[C@@H]1N[C@H](CNC(=O)c2ccc3cc(F)ccc3c2)CCN(CC(c2ccccc2)c2ccccc2)C1=O [Compound 25, N-(((3S,5S)-3-(2-(diethylamino)ethyl)-1-(2,2-diphenylethyl)-2-oxo-1,4-diazepan-5-yl)methyl)-6-fluoro-2-naphthamide]
17 | < 0.1 | N=C(N)NCCC[C@@H]1N[C@H](CNC(=O)/C=C/c2ccc(C(F)(F)F)cc2)CCN(CC(c2ccccc2)c2ccccc2)C1=O [Compound 200, (E)-N-(((3S,5S)-1-(2,2-diphenylethyl)-3-(3-guanidinopropyl)-2-oxo-1,4-diazepan-5-yl)methyl)-3-(4-(trifluoromethyl)phenyl)acrylamide]
18 | < 0.01 | O=C(/C=C/c1ccc(Cl)cc1)NC[C@@H]1CCN(Cc2cc(Cl)cc(Cl)c2)C(=O)[C@H](CCN2CCCCC2)N1 [Compound 345, (E)-3-(4-chlorophenyl)-N-(((3S,5S)-1-(3,5-dichlorobenzyl)-2-oxo-3-(2-(piperidin-1-yl)ethyl)-1,4-diazepan-5-yl)methyl)acrylamide]
19 | < 0.1 | NCCC[C@@H]1N[C@H](CNC(=O)c2ccc3cc(F)ccc3c2)CCN(CC(c2ccccc2)c2ccccc2)C1=O [Compound 221, N-(((3S,5S)-3-(3-aminopropyl)-1-(2,2-diphenylethyl)-2-oxo-1,4-diazepan-5-yl)methyl)-6-fluoro-2-naphthamide]
20 | < 0.01 | N=C(N)NCCC[C@@H]1N[C@H](CNC(=O)/C=C/c2ccc(Br)cc2)CCN(CC(c2ccccc2)c2ccccc2)C1=O [Compound 210, (E)-3-(4-bromophenyl)-N-(((3S,5S)-1-(2,2-diphenylethyl)-3-(3-guanidinopropyl)-2-oxo-1,4-diazepan-5-yl)methyl)acrylamide]
21 | < 0.1 | NCC[C@@H]1N[C@H](CNC(=O)/C=C/c2ccc(Cl)cc2)CCN(Cc2cc(Cl)cc(Cl)c2)C1=O [Compound 326, (E)-N-(((3S,5S)-3-(2-aminoethyl)-1-(3,5-dichlorobenzyl)-2-oxo-1,4-diazepan-5-yl)methyl)-3-(4-chlorophenyl)acrylamide]
22 | < 0.1 | Cc1ccccc1/C=C/C(=O)NC[C@@H]1CCN(CC(c2ccccc2)c2ccccc2)C(=O)[C@H](CCCNC(=N)N)N1 [Compound 195, (E)-N-(((3S,5S)-1-(2,2-diphenylethyl)-3-(3-guanidinopropyl)-2-oxo-1,4-diazepan-5-yl)methyl)-3-o-tolylacrylamide]
